PubChem BioAssay AID1918946 (Molecular Pharmacology Branch, DTP, NCI, 2023)

Test system: 885512-296-R-J2-PDC complex spheroid viability
Experiment: Anticancer human tumor 885512-296-R-J2-PDC patient-derived breast carcinoma cell line growth inhibition
Conditions: for IC50: curve of first compound; for viability, T/C: stronger effect = lower value
Method in brief: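 Multicellular complex spheroids of tumor cells with human endothelial cells (HUVEC) and mesenchymal stem cells; the LSD1 inhibitor iadademstat was combined with standard-of-care or investigational agents. Top concentration at or near clinical Cmax, half-log dilutions; final DMSO ≤0.25%.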

[1] = second compound 0.1 µM, first compound 0.0316 µM
[2] = second compound 0.1 µM, first compound 0.1 µM
[3] = second compound 0.1 µM, first compound 0.316 µM
[4] = second compound 0.1 µM, first compound 1 µM
[5] = second compound 0.1 µM, first compound 3.16 µM
[6] = second compound 0.1 µM, first compound 10 µM
[7] = second compound 0.316 µM, first compound 0.0316 µM
[8] = second compound 0.316 µM, first compound 0.1 µM
[9] = second compound 0.316 µM, first compound 0.316 µM
[10] = second compound 0.316 µM, first compound 1 µM
[11] = second compound 0.316 µM, first compound 3.16 µM
[12] = second compound 0.316 µM, first compound 10 µM
[13] = second compound 1 µM, first compound 0.0316 µM
[14] = second compound 1 µM, first compound 0.1 µM
[15] = second compound 1 µM, first compound 0.316 µM
[16] = second compound 1 µM, first compound 1 µM
[17] = second compound 1 µM, first compound 3.16 µM
[18] = second compound 1 µM, first compound 10 µM
[19] = second compound 3.16 µM, first compound 0.0316 µM
[20] = second compound 3.16 µM, first compound 0.1 µM
[21] = second compound 3.16 µM, first compound 0.316 µM
[22] = second compound 3.16 µM, first compound 1 µM
[23] = second compound 3.16 µM, first compound 3.16 µM
[24] = second compound 3.16 µM, first compound 10 µM
[25] = second compound 10 µM, first compound 0.0316 µM
[26] = second compound 10 µM, first compound 0.1 µM
[27] = second compound 10 µM, first compound 0.316 µM
[28] = second compound 10 µM, first compound 1 µM
[29] = second compound 10 µM, first compound 3.16 µM
[30] = second compound 10 µM, first compound 10 µM
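Note: spheroids exposed to agents for 7 days before viability read.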

| SMILES | IC50 (second compound 0.1 µM) [µM] | IC50 (second compound 0.316 µM) [µM] | IC50 (second compound 1 µM) [µM] | IC50 (second compound 3.16 µM) [µM] | IC50 (second compound 10 µM) [µM] | viability, T/C [1] [%] | viability, T/C [2] [%] | viability, T/C [3] [%] | viability, T/C [4] [%] | viability, T/C [7] [%] | viability, T/C [8] [%] | viability, T/C [9] [%] | viability, T/C [10] [%] | viability, T/C [13] [%] | viability, T/C [14] [%] | viability, T/C [15] [%] | viability, T/C [16] [%] | viability, T/C [19] [%] | viability, T/C [20] [%] | viability, T/C [21] [%] | further results |
| --- | --- | --- | --- | --- | --- | --- | --- | --- | --- | --- | --- | --- | --- | --- | --- | --- | --- | --- | --- | --- | --- |
| CC(C)c1c(-c2ccccc2)nc2c(C#N)c[nH]n2c1=O + NC1CCC(NC2CC2c2ccccc2)CC1 | > 10 | > 10 | > 10 | > 10 | > 10 | 121 | 123 | 137 | 128 | 133 | 126 | 137 | 131 | 135 | 114 | 129 | 123 | 111 | 122 | 120 | viability, T/C [5]: 116%; viability, T/C [6]: 119%; viability, T/C [11]: 118%; viability, T/C [12]: 113%; viability, T/C [17]: 148%; viability, T/C [18]: 110%; viability, T/C [22]: 145%; viability, T/C [23]: 115%; viability, T/C [24]: 118%; viability, T/C [25]: 99.3%; viability, T/C [26]: 85.5%; viability, T/C [27]: 97.2%; viability, T/C [28]: 109%; viability, T/C [29]: 104%; viability, T/C [30]: 114% |
| CC1COCCN1c1cc(-c2ccnn2C)c2ccnc(-c3ccn[nH]3)c2n1 (stereo not given) + NC1CCC(NC2CC2c2ccccc2)CC1 | < 0.00316 | < 0.00316 | < 0.00316 | < 0.00316 | < 0.00316 | 9.16 | 5.02 | 7.43 | 11.5 | 4.73 | 4.6 | 6.77 | 5.15 | 5.72 | 5.22 | 4.61 | 8.49 | 3.3 | 6.46 | 4.63 | viability, T/C (second compound 0.1 µM, first compound 0.00316 µM): 42%; viability, T/C (second compound 0.1 µM, first compound 0.01 µM): 8.7%; viability, T/C (second compound 0.316 µM, first compound 0.00316 µM): 42%; viability, T/C (second compound 0.316 µM, first compound 0.01 µM): 10.9%; viability, T/C (second compound 1 µM, first compound 0.00316 µM): 38.8%; viability, T/C (second compound 1 µM, first compound 0.01 µM): 10.6%; viability, T/C (second compound 3.16 µM, first compound 0.00316 µM): 38.8%; viability, T/C (second compound 3.16 µM, first compound 0.01 µM): 7.56%; viability, T/C [22]: 4.98%; viability, T/C (second compound 10 µM, first compound 0.00316 µM): 23.8%; viability, T/C (second compound 10 µM, first compound 0.01 µM): 5.72%; viability, T/C [25]: 3.24%; viability, T/C [26]: 2.51%; viability, T/C [27]: 2.18%; viability, T/C [28]: 2.8% |
| COc1ccc([C@@H](O)c2cc(-c3ncnc4cc(N5CCOCC5)ccc34)c(F)cc2Cl)nn1 + NC1CCC(NC2CC2c2ccccc2)CC1 | 3.53 | 3 | 2.66 | 3.23 | 2.19 | 114 | 104 | 90.3 | 91.8 | 128 | 119 | 101 | 85.2 | 142 | 102 | 102 | 89.8 | 117 | 109 | 105 | viability, T/C [5]: 50.1%; viability, T/C [6]: 12.1%; viability, T/C [11]: 46.3%; viability, T/C [12]: 11.4%; viability, T/C [17]: 36.6%; viability, T/C [18]: 9.41%; viability, T/C [22]: 92.8%; viability, T/C [23]: 49.7%; viability, T/C [24]: 10.4%; viability, T/C [25]: 130%; viability, T/C [26]: 94.9%; viability, T/C [27]: 87.2%; viability, T/C [28]: 84.3%; viability, T/C [29]: 35%; viability, T/C [30]: 5.65% |
